ChEMBL document CHEMBL1143799, “Synthesis and primary cytotoxicity evaluation of new imidazo[2,1-b]thiazole derivatives” (2007)

Experiments:
Format in all cases: functional
CCRF-CEM = assay: Growth inhibition of human CCRF-CEM cells after 48 hrs by SRB protein assay
A549 = assay: Growth inhibition of human A549 cells after 48 hrs by SRB protein assay; details: A549, 48 h
EKVX = assay: Growth inhibition of human EKVX cells after 48 hrs by SRB protein assay
HOP-62 = assay: Growth inhibition of human HOP62 cells after 48 hrs by SRB protein assay; details: HOP-62, 48 h
NCI-H322M = assay: Growth inhibition of human NCI-H322M cells after 48 hrs by SRB protein assay
NCI-H460 = assay: Growth inhibition of human NCI-H460 cells after 48 hrs by SRB protein assay; details: NCI-H460, 48 h
COLO 205 = assay: Growth inhibition of human COLO205 cells after 48 hrs by SRB protein assay; details: COLO 205, 48 h
HCC 2998 = assay: Growth inhibition of human HCC2998 cells after 48 hrs by SRB protein assay; details: HCC 2998, 48 h
HCT-116 = assay: Growth inhibition of human HCT116 cells after 48 hrs by SRB protein assay; details: HCT-116, 48 h
HCT-15 = assay: Growth inhibition of human HCT15 cells after 48 hrs by SRB protein assay; details: HCT-15, 48 h
HT-29 = assay: Growth inhibition of human HT29 cells after 48 hrs by SRB protein assay; details: HT-29, 48 h
SW-620 = assay: Growth inhibition of human SW620 cells after 48 hrs by SRB protein assay; details: SW-620, 48 h
SF-268 = assay: Growth inhibition of human SF268 cells after 48 hrs by SRB protein assay; details: SF-268, 48 h
SF-539 = assay: Growth inhibition of human SF539 cells after 48 hrs by SRB protein assay; details: SF-539, 48 h
SNB-19 = assay: Growth inhibition of human SNB19 cells after 48 hrs by SRB protein assay; details: SNB-19, 48 h
SNB-75 = assay: Growth inhibition of human SNB75 cells after 48 hrs by SRB protein assay; details: SNB-75, 48 h
U-251 = assay: Growth inhibition human U251 of cells after 48 hrs by SRB protein assay; details: U-251, 48 h
LOX IMVI = assay: Growth inhibition of human LOX IMVI cells after 48 hrs by SRB protein assay
M14 = assay: Growth inhibition of human M14 cells after 48 hrs by SRB protein assay; details: M14, 48 h
SK-MEL-28 = assay: Growth inhibition of human SK-MEL-28 cells after 48 hrs by SRB protein assay; details: SK-MEL-28, 48 h
UACC-257 = assay: Growth inhibition of human UACC257 cells after 48 hrs by SRB protein assay; details: UACC-257, 48 h
UACC-62 = assay: Growth inhibition of human UACC62 cells after 48 hrs by SRB protein assay; details: UACC-62, 48 h
OVCAR-3 = assay: Growth inhibition of human OVCAR-3 cells after 48 hrs by SRB protein assay; details: OVCAR-3, 48 h
OVCAR-8 = assay: Growth inhibition of human OVCAR8 cells after 48 hrs by SRB protein assay; details: OVCAR-8, 48 h
SK-OV-3 = assay: Growth inhibition of human SK-OV-3 cells after 48 hrs by SRB protein assay; details: SK-OV-3, 48 h
[1] = Growth inhibition of human 786O cells after 48 hrs by SRB protein assay; details: 786-0, 48 h
ACHN = assay: Growth inhibition of human ACHN cells after 48 hrs by SRB protein assay
CAKI-1 = assay: Growth inhibition of human CAKI1 cells after 48 hrs by SRB protein assay; details: CAKI-1, 48 h
RXF 393 = assay: Growth inhibition of human RXF393 cells after 48 hrs by SRB protein assay; details: RXF 393, 48 h
SN12C = assay: Growth inhibition of human SN12C cells after 48 hrs by SRB protein assay
UO-31 = assay: Growth inhibition of human UO31 cells after 48 hrs by SRB protein assay; details: UO-31, 48 h
PC-3 = assay: Growth inhibition of human PC3 cells after 48 hrs by SRB protein assay; details: PC-3, 48 h
DU-145 = assay: Growth inhibition of human DU145 cells after 48 hrs by SRB protein assay; details: DU-145, 48 h
MCF7 = assay: Growth inhibition of human MCF7 cells after 48 hrs by SRB protein assay; details: MCF7, 48 h
MDA-MB-231 = assay: Growth inhibition of MDA-MB-231 cells after 48 hrs by SRB protein assay; details: Homo sapiens, MDA-MB-231, 48 h
Hs-578T = assay: Growth inhibition of human HS578T cells after 48 hrs by SRB protein assay
SK-MEL-5 = assay: Growth inhibition of human SK-MEL-5 cells after 48 hrs by SRB protein assay; details: SK-MEL-5, 48 h
BT-549 = assay: Growth inhibition of human BT549 cells after 48 hrs by SRB protein assay; details: BT-549, 48 h
T47D = assay: Growth inhibition of human T47D cells after 48 hrs by SRB protein assay
OVCAR-5 = assay: Growth inhibition of human OVCAR5 cells after 48 hrs by SRB protein assay; details: OVCAR-5, 48 h

O=C(Cc1csc2nc(-c3ccc(Br)cc3)cn12)N/N=C/c1ccc(Cl)cc1Cl
GI50 (CCRF-CEM): 39.8 µM | TGI (CCRF-CEM; read-out: Log TGI (converted)): > 100 µM | GI50 (A549): 17 µM | TGI (A549; read-out: Log TGI (converted)): 37.2 µM | GI50 (EKVX): 31.6 µM | TGI (EKVX; read-out: Log TGI (converted)): > 100 µM | GI50 (HOP-62): 16.6 µM | TGI (HOP-62; read-out: Log TGI (converted)): 34.7 µM | GI50 (NCI-H322M): 24.5 µM | TGI (NCI-H322M; read-out: Log TGI (converted)): 69.2 µM | GI50 (NCI-H460): > 100 µM | TGI (NCI-H460; read-out: Log TGI (converted)): > 100 µM | GI50 (COLO 205): 75.9 µM | TGI (COLO 205; read-out: Log TGI (converted)): > 100 µM | GI50 (HCC 2998): 20 µM | TGI (HCC 2998; read-out: Log TGI (converted)): 44.7 µM | GI50 (HCT-116): 17 µM | TGI (HCT-116; read-out: Log TGI (converted)): 37.2 µM | GI50 (HCT-15): 25.7 µM | TGI (HCT-15; read-out: Log TGI (converted)): 72.4 µM | GI50 (HT-29): 40.7 µM | TGI (HT-29; read-out: Log TGI (converted)): > 100 µM | GI50 (SW-620): 22.9 µM | TGI (SW-620; read-out: Log TGI (converted)): 60.3 µM | GI50 (SF-268): > 100 µM | TGI (SF-268; read-out: Log TGI (converted)): > 100 µM | GI50 (SF-539): 26.9 µM | TGI (SF-539; read-out: Log TGI (converted)): 63.1 µM | GI50 (SNB-19): 95.5 µM | TGI (SNB-19; read-out: Log TGI (converted)): > 100 µM | GI50 (SNB-75): 37.2 µM | TGI (SNB-75; read-out: Log TGI (converted)): > 100 µM | GI50 (U-251): 20.4 µM | TGI (U-251; read-out: Log TGI (converted)): 44.7 µM | GI50 (LOX IMVI): 21.4 µM | TGI (LOX IMVI; read-out: Log TGI (converted)): 49 µM | GI50 (M14): 33.1 µM | TGI (M14; read-out: Log TGI (converted)): > 100 µM | GI50 (SK-MEL-28): > 100 µM | TGI (SK-MEL-28; read-out: Log TGI (converted)): > 100 µM | GI50 (UACC-257): 69.2 µM | TGI (UACC-257; read-out: Log TGI (converted)): > 100 µM | GI50 (UACC-62): 23.4 µM | TGI (UACC-62; read-out: Log TGI (converted)): 67.6 µM | GI50 (OVCAR-3): 34.7 µM | TGI (OVCAR-3; read-out: Log TGI (converted)): > 100 µM | GI50 (OVCAR-8): 18.6 µM | TGI (OVCAR-8; read-out: Log TGI (converted)): 50.1 µM | GI50 (SK-OV-3): > 100 µM | TGI (SK-OV-3; read-out: Log TGI (converted)): > 100 µM | GI50 [1]: 25.7 µM | TGI ([1]; read-out: Log TGI (converted)): 74.1 µM | GI50 (ACHN): 22.4 µM | TGI (ACHN; read-out: Log TGI (converted)): 53.7 µM | GI50 (CAKI-1): 36.3 µM | TGI (CAKI-1; read-out: Log TGI (converted)): > 100 µM | GI50 (RXF 393): 28.2 µM | TGI (RXF 393; read-out: Log TGI (converted)): 85.1 µM | GI50 (SN12C): 85.1 µM | TGI (SN12C; read-out: Log TGI (converted)): > 100 µM | GI50 (UO-31): 72.4 µM | TGI (UO-31; read-out: Log TGI (converted)): > 100 µM | GI50 (PC-3): 30.2 µM | TGI (PC-3; read-out: Log TGI (converted)): > 100 µM | GI50 (DU-145): 26.3 µM | TGI (DU-145; read-out: Log TGI (converted)): > 100 µM | GI50 (MCF7): > 100 µM | TGI (MCF7; read-out: Log TGI (converted)): > 100 µM | GI50 (MDA-MB-231): 26.3 µM | TGI (MDA-MB-231; read-out: Log TGI (converted)): > 100 µM | GI50 (Hs-578T): 31.6 µM | TGI (Hs-578T; read-out: Log TGI (converted)): 89.1 µM | GI50 (SK-MEL-5): 44.7 µM | TGI (SK-MEL-5; read-out: Log TGI (converted)): > 100 µM | GI50 (BT-549): 25.7 µM | TGI (BT-549; read-out: Log TGI (converted)): 77.6 µM | GI50 (T47D): > 100 µM | TGI (T47D; read-out: Log TGI (converted)): > 100 µM | GI50 (OVCAR-5): 28.8 µM | TGI (OVCAR-5; read-out: Log TGI (converted)): 67.6 µM
